# Measurements: the supplement of paper PMC10307832
# Assays:
# Experiment in all cases: relative viability (nuclei count vs DMSO), 5 days (fraction); higher = more cells survive
# [1] = compound: CN1C=C(C2=CC=CC=C21)/C=C\3/C4=C(C=CC=N4)NC3=O + CS(=O)(=O)N1CCN(Cc2cc3nc(-c4cccc5[nH]ncc45)nc(N4CCOCC4)c3s2)CC1 [Pictilisib] (partner 1 µM)
# How it was run: (§1)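 A single step with final 0.05% Triton X-100, 1% formaldehyde and 1 ug/ml Hoechst fixed the cells and stained nuclei 5 days after treatment. Lung cancer cell lines in 1536-well plates had been treated by pin tool the day after seeding with one drug alone or a fixed anchor-drug dose plus five library-drug doses (not always all listed) in √10 steps, and nuclei were counted on 4× images. Relative viability is the ratio of nuclei in treated wells to nuclei in vehicle wells, taken as the median of duplicate plates.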
# [2] = compound: CN1C=C(C2=CC=CC=C21)/C=C\3/C4=C(C=CC=N4)NC3=O + COc1cc2c(Oc3ccc(NC(=O)C4(C(=O)Nc5ccc(F)cc5)CC4)cc3F)ccnc2cc1OCCCN1CCOCC1 [Foretinib] (partner 0.25 µM)
# How it was run: as §1
# [3] = compound: CN1C=C(C2=CC=CC=C21)/C=C\3/C4=C(C=CC=N4)NC3=O + Cc1cc(Nc2cc(N3CCN(C)CC3)nc(Sc3ccc(NC(=O)C4CC4)cc3)n2)n[nH]1 [Tozasertib] (partner 0.1 µM)
# How it was run: as §1
# [4] = compound: CN1C=C(C2=CC=CC=C21)/C=C\3/C4=C(C=CC=N4)NC3=O + O=C(c1cc(Cc2n[nH]c(=O)c3ccccc23)ccc1F)N1CCN(C(=O)C2CC2)CC1 [Olaparib] (partner 8 µM)
# How it was run: as §1
Cell Line,relative viability ([1]; first compound 0.02 µM),relative viability ([1]; first compound 0.06325 µM),relative viability ([1]; first compound 0.2 µM),relative viability ([1]; first compound 0.6325 µM),relative viability ([1]; first compound 2 µM),relative viability ([2]; first compound 0.02 µM),relative viability ([2]; first compound 0.06325 µM),relative viability ([2]; first compound 0.2 µM),relative viability ([2]; first compound 0.6325 µM),relative viability ([2]; first compound 2 µM),relative viability ([3]; first compound 0.02 µM),relative viability ([3]; first compound 0.06325 µM),relative viability ([3]; first compound 0.2 µM),relative viability ([3]; first compound 0.6325 µM),relative viability ([3]; first compound 2 µM),relative viability ([4]; first compound 0.02 µM),relative viability ([4]; first compound 0.06325 µM),relative viability ([4]; first compound 0.2 µM),relative viability ([4]; first compound 0.6325 µM),relative viability ([4]; first compound 2 µM)
PC-14,0.573,0.662,0.881,0.635,0.691,0.993,0.975,1.04,0.959,1.01,0.564,0.525,0.585,0.553,0.541,0.213,0.237,0.197,0.235,0.251
NCI-H358,0.33,0.319,0.301,0.338,0.387,0.693,0.622,0.815,0.637,0.687,0.0895,0.11,0.109,0.0977,0.117,0.607,0.534,0.564,0.565,0.507
NCI-H1915,0.973,0.871,0.831,0.961,0.97,1.09,1.15,1.14,1.18,1.18,0.385,0.432,0.482,0.424,0.484,0.259,0.257,0.28,0.304,0.257
201T,0.64,0.649,0.629,0.626,0.613,1.27,1,0.983,0.773,0.713,1,0.96,0.947,0.897,0.781,0.821,0.781,0.868,0.931,0.87
NCI-H1437,0.432,0.399,0.466,0.403,0.493,1.34,1.22,1.34,1.31,1.3,0.39,0.427,0.417,0.438,0.463,0.628,0.644,0.657,0.681,0.658
A-427,0.726,0.707,–,0.679,0.742,1.18,1.21,–,0.958,1.1,0.203,0.207,–,0.201,0.166,0.708,0.606,–,0.71,0.76
HCC-366,0.114,0.121,0.118,0.113,0.104,0.934,1.01,0.886,0.916,0.896,0.09,0.109,0.0765,0.0587,0.0526,0.315,0.287,0.36,0.372,0.288
